This passage reports IC50 results from patent publication US20100152219A1, “PYRAZOLE DERIVATIVES AS INHIBITORS OF RECEPTOR TYROSINE KINASES” (ASTRAZENECA R&D, priority 2003, published 2010).

SMILES strings stand for the structures.

The experiment concerns the target T1, human TrkB kinase (Homo sapiens, UniProt Q16620).
T1 construct: The intracellular domain of a HIS-tagged human TrkB kinase; His tag; made in house; host or cells: Sf9 insect cells
The experiment in a line: TrkB Assay Format (HTRF kinase assay). It counts as biochemical. Particulars: Trk inhibitory activity in the in-vitro TrkB HTRF assay. How it is done: TrkB kinase activity is being measured against its ability to phosphorylate synthetic tyrosine residues within a generic polypeptide substrate using homogenous time-resolved fluorescence (HTRF) technology. The intracellular domain of a HIS-tagged human TrkB kinase was expressed in SF9 cells and purified using standard nickel column chromatography. After the kinase is incubated with a biotinylated substrate and adenosine triphosphate (ATP) for 50 minutes at room temperature, the kinase reaction is stopped by the addition of 60 mM ethylenediaminetetraacetic acid (EDTA). The reaction is performed in 384 well microtitre plates and reaction products are detected with the addition of strepavidin-linked and phosphotyrosine-specific antibodies using the Tecan Ultra Evolution Microplate Fluometer after an additional 3-hour incubation at room temperature.
Background: In TR-FRET formats the signal depends on donor and acceptor labels being close together.

T1 sequence (Q16620 455-822 limits assumed): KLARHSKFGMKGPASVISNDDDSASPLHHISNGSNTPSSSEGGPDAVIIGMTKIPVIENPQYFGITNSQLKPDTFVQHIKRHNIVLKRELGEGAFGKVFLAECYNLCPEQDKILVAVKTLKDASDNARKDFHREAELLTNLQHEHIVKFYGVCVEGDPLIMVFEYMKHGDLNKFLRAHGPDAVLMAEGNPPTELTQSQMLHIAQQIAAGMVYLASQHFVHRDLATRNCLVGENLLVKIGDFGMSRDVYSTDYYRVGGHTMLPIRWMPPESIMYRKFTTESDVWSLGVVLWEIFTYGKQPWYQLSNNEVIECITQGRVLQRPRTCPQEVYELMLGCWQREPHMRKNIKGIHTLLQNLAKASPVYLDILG

`C[C@H](Nc1nccc(Nc2cc(C3CC3)n[nH]2)n1)c1ccc(F)cc1` [Example 42, N^4-(3-Cyclopropyl-1H-pyrazol-5-yl)-N^2-[(1S)-1-(4-fluorophenyl)ethyl]pyrimidine-2,4-diamine] registered an IC50 of 67 nM.

Compound `OCC[C@H](Nc1nc(Nc2cc(C3CC3)[nH]n2)c2sccc2n1)c1ccc(F)cc1` [Example 64, (3S)-3-({4-[(5-Cyclopropyl-1H-pyrazol-3-yl)amino]thieno[3,2-d]pyrimidin-2-yl}amino)-3-(4-fluorophenyl)propan-1-ol] registered a 50% inhibitory concentration (IC50) of 59 nM.

For `COc1ccc2nc(N[C@@H](CO)c3ccc(F)cc3)nc(Nc3cc(C4CC4)[nH]n3)c2c1` [Example 80, (2R)-2-({4-[(5-Cyclopropyl-1H-pyrazol-3-yl)amino]-6-methoxyquinazolin-2-yl}amino)-2-(4-fluorophenyl)ethanol], half-maximal inhibition (IC50) required 87 nM.

As usually defined, the IC50 is the concentration that inhibits the measured activity by half. Read a low IC50 as greater potency in that assay.
